Laboratory results from publication PMC2802001, “Binding of Natural and Synthetic Polyphenols to Human Dihydrofolate Reductase” (International Journal of Molecular Sciences, 2009).
Where “and” joins values, the source holds several entries; their conditions need not be identical. Equal entries are not always repeated. Entries after “also recorded” stand apart in the source; their conditions may differ.

Tests used:
human DHFR [1] = biological target: T1, human DHFR (Homo sapiens, UniProt P00374); assay: Fluorescence titration (quenching of tryptophan fluorescence) for binding to free DHFR; conditions: for Kd / Binding to human DHFR (effect on enzyme fluorescence), in words: fluorescence quenching; for Kd: excitation 290 nm, enzyme 0.1 μM, pH 7.4, read-out: KD, dissociation constant for binding to human DHFR
T1 construct: purchased Sigma
T1 sequence (P00374 1-187): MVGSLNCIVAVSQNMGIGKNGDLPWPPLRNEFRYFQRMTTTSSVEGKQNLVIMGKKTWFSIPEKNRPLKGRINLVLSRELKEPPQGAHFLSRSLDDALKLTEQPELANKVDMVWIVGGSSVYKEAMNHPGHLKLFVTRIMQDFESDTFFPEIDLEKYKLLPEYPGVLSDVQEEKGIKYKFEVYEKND
Description: Highly purified tea polyphenols EGCG (>95%), ECG (>98%), EGC (>98%), and EC (>98%) were purchased from Sigma Chemical Co. (Madrid, Spain). Qgal, Qglc, Qrha and Qxyl were form Fluka (Madrid, Spain). […] To synthesize TMECG-QM, a TMECG solution (0.5 mM) in phosphate buffered saline (PBS), pH 7.0, was alkalinize at pH 8.5 with NaOH. The reaction was followed spectrophotometrically at 470 nm and, after completion, the sample was neutralized by adding HCl. Recombinant human DHFR was purchased from Sigma and its concentration was determined by MTX titration of enzyme fluorescence.
The fluorescence of DHFR is reduced on binding of substrates and inhibitors, and this property may be used as a convenient method for determining both the enzyme concentration and the dissociation constants of enzyme-ligands complexes. Dissociation constants for the binding of polyphenols to free DHFR were determined by fluorescence titration in an automatic-scanning Perkin-Elmer LS50B spectrofluorimeter with 1.0 cm light path cells and equipped with a 150W xenon (XBO) light source. The formation of the binary complex between the enzyme and the ligand was followed by measuring the quenching of tryptophan fluorescence of the enzyme upon addition of microliter volumes of a concentrated stock solution of ligand. Fluorescence emission spectra were recorded when DHFR fluorescence was excited at 290 nm. All measurements were corrected for dilution and the data from the titration curves were fitted as described previously. Titrations were performed in a buffer containing 2-(N-morpholino)ethanesulfonic acid (Mes, 0.025 M), sodium acetate (0.025 M), tris(hydroxymethyl)aminomethane (Tris 0.05 M), and NaCl (0.1 M), at pH 7.4.

[2] = Stability of TMECG in solution at neutral and alkaline pH; format: physicochemical
Description: Despite the excellent anticancer properties of tea catechins, they have at least one great limitation: their poor bioavailability. The reduced availability of catechins is related with their low stability in neutral or slightly alkaline solutions and their poor ability to cross cellular membranes. […] This synthetic catechin also bound human DHFR with an effective dissociation constant of 2.1 ± 0.2 μM (Figure 5; Table 1). […] By analogy with the oxidation of quercetin in alkaline solution [19], the proposed structure for this compound is depicted in Figure 6 and was identified as a quinone methide (TMECG-QM) with an open structure.
Highly purified tea polyphenols EGCG (>95%), ECG (>98%), EGC (>98%), and EC (>98%) were purchased from Sigma Chemical Co. (Madrid, Spain). Qgal, Qglc, Qrha and Qxyl were form Fluka (Madrid, Spain). TMECG was successfully synthesized (70% recovery) from catechin with the subsequent inversion of the stereochemistry at C-3 and by reaction of with 3,4,5-trimethoxybenzoylchloride (Sigma). To synthesize TMECG-QM, a TMECG solution (0.5 mM) in phosphate buffered saline (PBS), pH 7.0, was alkalinize at pH 8.5 with NaOH. The reaction was followed spectrophotometrically at 470 nm and, after completion, the sample was neutralized by adding HCl. Recombinant human DHFR was purchased from Sigma and its concentration was determined by MTX titration of enzyme fluorescence.

[3] = test system: different cancer cell lines; design: method as in PMID 18324763; conditions: cited from earlier work
[4] = design: method as in PMID 18324763; conditions: cited from earlier work
human DHFR [5] = biological target: T1, human DHFR; assay: Human DHFR activity assayed in the presence of tea catechins; format: biochemical
Description: In order to detect which components of these extracts were responsible for such inhibition, human DHFR activity was assayed in the presence of EC, EGC, ECG or EGCG. […] The effective binding of ECG to free human DHFR was determined by following the decrease in enzyme fluorescence that occurs after formation of the enzyme-inhibitor complex (Figure 3).

bovine liver DHFR = test system: bovine liver DHFR; design: method as in PMID 15781612; conditions: cited from earlier work
chicken liver DHFR = test system: chicken liver DHFR; design: method as in PMID 15781612; conditions: cited from earlier work

Row | Kd (human DHFR [1]) | Inhibition of human DHFR activity, in words (human DHFR [5]) | Compound | other results
1 | 0.6 µM and 0.59 µM | – | O=c1c(OC2OCC(O)C(O)C2O)c(-c2ccc(O)c(O)c2)oc2cc(O)cc(O)c12 [Qxyl, quercetin-3-D-xyloside] | –
2 | 2.1 ± 0.2 µM | – | COc1cc(C(=O)O[C@@H]2Cc3c(O)cc(O)cc3OC2c2ccc(O)c(O)c2)cc(OC)c1OC (stereo partly drawn) [TMECG, 3-O-(3,4,5-trimethoxybenzoyl)-(-)-epicatechin] | Stability at alkaline pH ([2]; alkaline pH, band at 470 nm): rapidly evolves to an orange compound; Stability at neutral pH ([2]; neutral pH): highly stable; Antiproliferative activity [3]: significant antiproliferative activity; Bioavailability in vitro [4]: high bioavailability in vitro
3 | 1.8 µM and 1.78 µM | potent inhibitors | O=C(OC1Cc2c(O)cc(O)cc2OC1c1ccc(O)c(O)c1)c1cc(O)c(O)c(O)c1 (single isomer, unassigned; (-)) [ECG, (-)-epicatechin gallate] | –
4 | – | did not inhibit | Oc1cc(O)c2c(c1)O[C@H](c1ccc(O)c(O)c1)[C@H](O)C2 [EC, (-)-epicatechin] | Binding to human DHFR (effect on enzyme fluorescence), in words (human DHFR [1]): did not modify the emission spectra; also recorded: did not bind
5 | – | – | COc1cc(C(=O)O[C@H](Cc2c(O)cc(O)cc2O)/C(O)=C2/C=CC(=O)C(O)=C2)cc(OC)c1OC [TMECG-QM] | Affinity for human DHFR relative to EGCG, ECG or TMECG (human DHFR [1]; compared with EGCG, ECG or TMECG): more than two-order of magnitude more strongly; Affinity for human DHFR relative to MTX (human DHFR [1]; compared with MTX): forty-times less
6 | 0.9 µM and 0.92 µM | potent inhibitors | O=C(O[C@@H]1Cc2c(O)cc(O)cc2O[C@@H]1c1cc(O)c(O)c(O)c1)c1cc(O)c(O)c(O)c1 [EGCG, (-)-epigallocatechin gallate] | Type of inhibition of DHF reduction (bovine liver DHFR): slow-binding inhibitor; Type of inhibition of DHF reduction (chicken liver DHFR): classical, reversible, competitive inhibitor
7 | – | did not inhibit | Oc1cc(O)c2c(c1)OC(c1cc(O)c(O)c(O)c1)C(O)C2 (single isomer, unassigned; (-)) [EGC, (-)-epigallocatechin] | Binding to human DHFR (effect on enzyme fluorescence), in words (human DHFR [1]): did not bind

Row | Compound | Kd (human DHFR [1]) | Inhibition of human DHFR activity, in words (human DHFR [5]) | other results
8 | O=c1c(O[C@@H]2O[C@H](CO)[C@@H](O)[C@H](O)[C@H]2O)c(-c2ccc(O)c(O)c2)oc2cc(O)cc(O)c12 [Qglc, quercetin-3-β-D-glucoside] | 102 ± 9 µM | – | –
9 | CC1OC(Oc2c(-c3ccc(O)c(O)c3)oc3cc(O)cc(O)c3c2=O)C(O)C(O)C1O (stereo not drawn) [Qrha, quercetin-3-rhamnoside] | 17.2 ± 2.4 µM | – | –
10 | O=c1c(O[C@@H]2O[C@H](CO)[C@H](O)[C@H](O)[C@H]2O)c(-c2ccc(O)c(O)c2)oc2cc(O)cc(O)c12 [Qgal, quercetin-3-D-galactoside] | 22.8 ± 3.2 µM | – | –
